Measured values from US12441703B2, “Carboxamides as modulators of sodium channels” (VERTEX PHARMACEUTICALS INCORPORATED, priority 2019, dated 2025).

What follows are molecules tested against human NaV 1.8 (Homo sapiens, UniProt Q9Y5Y9) (assay: E-VIPR assay for detecting and measuring NaV inhibition properties). Details: E-VIPR assay conducted in the presence of human serum; HEK cells expressing truncated human NaV 1.8; read-out: IC50.
Format: cell-based
Summary of the method: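 Membrane-potential (coumarin/oxonol) readout after 10 s of 10 Hz biphasic electrical stimulation on E-VIPR. Compounds: 11-point 3-fold dilutions, […], 0.625% DMSO, 30 min at room temperature, human serum optional. Cells: HEK expressing truncated human NaV1.8 co-transduced with KIR2.1.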

Sequence of human NaV 1.8 (Q9Y5Y9 whole entry, looked up, the tested form may be a part): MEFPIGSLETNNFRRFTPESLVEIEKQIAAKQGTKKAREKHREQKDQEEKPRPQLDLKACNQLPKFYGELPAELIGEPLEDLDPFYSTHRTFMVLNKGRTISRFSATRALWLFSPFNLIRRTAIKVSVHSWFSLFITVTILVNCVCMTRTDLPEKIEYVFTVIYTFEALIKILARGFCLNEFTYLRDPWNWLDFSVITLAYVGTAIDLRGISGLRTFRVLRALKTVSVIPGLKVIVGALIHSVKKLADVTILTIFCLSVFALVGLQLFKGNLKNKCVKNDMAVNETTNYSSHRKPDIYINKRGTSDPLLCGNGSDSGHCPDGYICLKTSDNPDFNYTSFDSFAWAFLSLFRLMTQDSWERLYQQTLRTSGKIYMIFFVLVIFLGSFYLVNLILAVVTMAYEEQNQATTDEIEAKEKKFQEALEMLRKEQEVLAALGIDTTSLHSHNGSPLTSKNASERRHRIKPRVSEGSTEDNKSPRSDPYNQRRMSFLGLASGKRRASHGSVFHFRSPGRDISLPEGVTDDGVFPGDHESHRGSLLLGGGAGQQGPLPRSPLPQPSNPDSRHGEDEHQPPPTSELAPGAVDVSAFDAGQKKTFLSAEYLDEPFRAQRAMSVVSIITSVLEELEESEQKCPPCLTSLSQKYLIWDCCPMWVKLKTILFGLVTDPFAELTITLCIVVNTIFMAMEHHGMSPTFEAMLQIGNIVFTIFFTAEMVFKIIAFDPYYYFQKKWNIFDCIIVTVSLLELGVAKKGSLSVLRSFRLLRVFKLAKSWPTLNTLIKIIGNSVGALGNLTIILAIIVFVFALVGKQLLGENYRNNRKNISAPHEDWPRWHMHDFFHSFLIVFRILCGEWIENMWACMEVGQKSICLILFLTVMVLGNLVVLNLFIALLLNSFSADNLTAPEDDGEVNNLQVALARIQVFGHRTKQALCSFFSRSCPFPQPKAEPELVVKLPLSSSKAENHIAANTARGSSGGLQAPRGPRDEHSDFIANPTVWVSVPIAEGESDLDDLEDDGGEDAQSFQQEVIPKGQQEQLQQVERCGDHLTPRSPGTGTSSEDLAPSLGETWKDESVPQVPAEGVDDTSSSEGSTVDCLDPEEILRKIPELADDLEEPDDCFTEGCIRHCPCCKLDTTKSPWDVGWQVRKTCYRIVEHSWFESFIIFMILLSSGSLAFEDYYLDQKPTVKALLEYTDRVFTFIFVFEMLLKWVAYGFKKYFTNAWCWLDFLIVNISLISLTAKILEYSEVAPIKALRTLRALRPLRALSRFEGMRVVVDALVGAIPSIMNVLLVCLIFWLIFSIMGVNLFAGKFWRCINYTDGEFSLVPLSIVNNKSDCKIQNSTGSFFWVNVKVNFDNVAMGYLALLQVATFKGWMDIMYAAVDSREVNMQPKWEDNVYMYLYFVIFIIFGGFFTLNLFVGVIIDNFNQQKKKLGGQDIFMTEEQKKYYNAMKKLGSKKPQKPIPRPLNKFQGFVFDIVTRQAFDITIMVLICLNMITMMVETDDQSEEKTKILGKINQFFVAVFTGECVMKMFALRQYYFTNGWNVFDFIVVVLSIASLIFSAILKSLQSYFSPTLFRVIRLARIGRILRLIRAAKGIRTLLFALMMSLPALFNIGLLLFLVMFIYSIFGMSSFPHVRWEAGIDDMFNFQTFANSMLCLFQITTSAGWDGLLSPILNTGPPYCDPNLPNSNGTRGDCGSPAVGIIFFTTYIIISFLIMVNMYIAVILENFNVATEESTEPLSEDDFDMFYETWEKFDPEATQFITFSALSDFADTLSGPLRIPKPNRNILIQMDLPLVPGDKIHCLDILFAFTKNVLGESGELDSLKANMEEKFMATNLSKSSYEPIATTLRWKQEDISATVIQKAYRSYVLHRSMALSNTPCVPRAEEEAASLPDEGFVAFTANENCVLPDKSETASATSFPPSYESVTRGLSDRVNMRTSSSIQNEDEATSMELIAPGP

Structure (SMILES) | IC50
COc1cc(C(F)(F)C(F)(F)F)ccc1Oc1ccc(C(F)(F)F)c(F)c1C(=O)Nc1ccc(C(N)=O)nc1 [Compound 210, 5-[[2-fluoro-6-[2-methoxy-4-(1,1,2,2,2-pentafluoroethyl)phenoxy]-3-(trifluoromethyl)benzoyl]amino]pyridine-2-carboxamide] | 280 nM
COc1cc(C)cc(OC)c1Oc1ccc(C(F)(F)F)c(F)c1C(=O)Nc1ccc(C(N)=O)nc1 [Compound 211, 5-[[6-(2,6-dimethoxy-4-methyl-phenoxy)-2-fluoro-3-(trifluoromethyl)benzoyl]amino]pyridine-2-carboxamide] | > 3000 nM
NC(=O)c1ccc(NC(=O)c2c(Oc3c(F)cc(F)cc3F)ccc(C(F)(F)F)c2F)cn1 [Compound 212, 5-[[2-fluoro-3-(trifluoromethyl)-6-(2,4,6-trifluorophenoxy)benzoyl]amino]pyridine-2-carboxamide] | > 3000 nM
Cc1cc(Cl)cc(Cl)c1Oc1ccc(C(F)(F)F)c(F)c1C(=O)Nc1ccc(C(N)=O)nc1 [Compound 213, 5-[[6-(2,4-dichloro-6-methyl-phenoxy)-2-fluoro-3-(trifluoromethyl)benzoyl]amino]pyridine-2-carboxamide] | > 3000 nM
Cc1c(F)ccc(Oc2ccc(C(F)(F)F)c(F)c2C(=O)Nc2ccc(C(N)=O)nc2)c1C [Compound 214, 5-[[2-fluoro-6-(4-fluoro-2,3-dimethyl-phenoxy)-3-(trifluoromethyl)benzoyl]amino]pyridine-2-carboxamide] | > 3000 nM
NC(=O)c1ccc(NC(=O)c2c(Oc3ccc(F)c(F)c3F)ccc(C(F)(F)F)c2F)cn1 [Compound 215, 5-[[2-fluoro-3-(trifluoromethyl)-6-(2,3,4-trifluorophenoxy)benzoyl]amino]pyridine-2-carboxamide] | 570 nM
NC(=O)c1ccc(NC(=O)c2c(Oc3ccc(OC(F)(F)F)c(F)c3)ccc(C(F)(F)F)c2F)cn1 [Compound 216, 5-[[2-fluoro-6-[3-fluoro-4-(trifluoromethoxy)phenoxy]-3-(trifluoromethyl)benzoyl]amino]pyridine-2-carboxamide] | 340 nM
NC(=O)c1ccc(NC(=O)c2c(Oc3ccc(OC(F)(F)F)c(Cl)c3)ccc(C(F)(F)F)c2F)cn1 [Compound 217, 5-[[6-[3-chloro-4-(trifluoromethoxy)phenoxy]-2-fluoro-3-(trifluoromethyl)benzoyl]amino]pyridine-2-carboxamide] | 160 nM
Cc1cc(Cl)ccc1Oc1ccc(C(F)(F)F)c(F)c1C(=O)Nc1ccc(C(N)=O)nc1 [Compound 218, 5-[[6-(4-chloro-2-methyl-phenoxy)-2-fluoro-3-(trifluoromethyl)benzoyl]amino]pyridine-2-carboxamide] | 735 nM
NC(=O)c1ccc(NC(=O)c2c(Oc3ccc(Cl)cc3F)ccc(C(F)(F)F)c2F)cn1 [Compound 219, 5-[[6-(4-chloro-2-fluoro-phenoxy)-2-fluoro-3-(trifluoromethyl)benzoyl]amino]pyridine-2-carboxamide] | 1500 nM
COc1cc(Cl)ccc1Oc1ccc(C(F)(F)F)c(F)c1C(=O)Nc1ccc(C(N)=O)nc1 [Compound 220, 5-[[6-(4-chloro-2-methoxy-phenoxy)-2-fluoro-3-(trifluoromethyl)benzoyl]amino]pyridine-2-carboxamide] | 530 nM
NC(=O)c1ccc(NC(=O)c2c(Oc3ccc(OC(F)(F)F)cc3F)ccc(C(F)(F)F)c2F)cn1 [Compound 221, 5-[[2-fluoro-6-[2-fluoro-4-(trifluoromethoxy)phenoxy]-3-(trifluoromethyl)benzoyl]amino]pyridine-2-carboxamide] | 430 nM
Cc1cc(OC(F)(F)F)ccc1Oc1ccc(C(F)(F)F)c(F)c1C(=O)Nc1ccc(C(N)=O)nc1 [Compound 222, 5-[[2-fluoro-6-[2-methyl-4-(trifluoromethoxy)phenoxy]-3-(trifluoromethyl)benzoyl]amino]pyridine-2-carboxamide] | 120 nM
NC(=O)c1ccc(NC(=O)c2c(Oc3ccc(OC(F)(F)F)cc3Cl)ccc(C(F)(F)F)c2F)cn1 [Compound 223, 5-[[6-[2-chloro-4-(trifluoromethoxy)phenoxy]-2-fluoro-3-(trifluoromethyl)benzoyl]amino]pyridine-2-carboxamide] | 130 nM
COc1c(Oc2ccc(C(F)(F)F)c(C)c2C(=O)Nc2ccc(C(N)=O)nc2)ccc(OC(F)(F)F)c1F [Compound 224, 5-[[6-[3-fluoro-2-methoxy-4-(trifluoromethoxy)phenoxy]-2-methyl-3-(trifluoromethyl)benzoyl]amino]pyridine-2-carboxamide] | 6 nM
Cc1c(C(F)(F)F)ccc(Oc2ccc(F)c(F)c2F)c1C(=O)Nc1ccc(C(N)=O)nc1 [Compound 225, 5-[[2-methyl-3-(trifluoromethyl)-6-(2,3,4-trifluorophenoxy)benzoyl]amino]pyridine-2-carboxamide] | 1500 nM
Cc1c(C(F)(F)F)ccc(Oc2ccc(OC(F)(F)F)cc2C2CC2)c1C(=O)Nc1ccc(C(N)=O)nc1 [Compound 226, 5-[[6-[2-cyclopropyl-4-(trifluoromethoxy)phenoxy]-2-methyl-3-(trifluoromethyl)benzoyl]amino]pyridine-2-carboxamide] | 140 nM
Cc1c(Oc2ccc(C(F)(F)F)c(C)c2C(=O)Nc2ccc(C(N)=O)nc2)ccc(F)c1F [Compound 227, 5-[[6-(3,4-difluoro-2-methyl-phenoxy)-2-methyl-3-(trifluoromethyl)benzoyl]amino]pyridine-2-carboxamide] | 610 nM
COc1cc(C)cc(OC)c1Oc1ccc(C(F)(F)F)c(C)c1C(=O)Nc1ccc(C(N)=O)nc1 [Compound 228, 5-[[6-(2,6-dimethoxy-4-methyl-phenoxy)-2-methyl-3-(trifluoromethyl)benzoyl]amino]pyridine-2-carboxamide] | > 3000 nM

Continued, values first:

IC50 | Structure (SMILES)
> 3000 nM | Cc1cc(Cl)cc(C)c1Oc1ccc(C(F)(F)F)c(C)c1C(=O)Nc1ccc(C(N)=O)nc1 [Compound 229, 5-[[6-(4-chloro-2,6-dimethyl-phenoxy)-2-methyl-3-(trifluoromethyl)benzoyl]amino]pyridine-2-carboxamide]
> 3000 nM | Cc1c(C(F)(F)F)ccc(Oc2c(F)cc(F)cc2F)c1C(=O)Nc1ccc(C(N)=O)nc1 [Compound 230, 5-[[2-methyl-3-(trifluoromethyl)-6-(2,4,6-trifluorophenoxy)benzoyl]amino]pyridine-2-carboxamide]
> 3000 nM | Cc1c(F)ccc(Oc2ccc(C(F)(F)F)c(C)c2C(=O)Nc2ccc(C(N)=O)nc2)c1C [Compound 231, 5-[[6-(4-fluoro-2,3-dimethyl-phenoxy)-2-methyl-3-(trifluoromethyl)benzoyl]amino]pyridine-2-carboxamide]
1500 nM | COc1cc(F)ccc1Oc1ccc(C(F)(F)F)c(C)c1C(=O)Nc1ccc(C(N)=O)nc1 [Compound 232, 5-[[6-(4-fluoro-2-methoxy-phenoxy)-2-methyl-3-(trifluoromethyl)benzoyl]amino]pyridine-2-carboxamide]
1400 nM | Cc1cc(Cl)ccc1Oc1ccc(C(F)(F)F)c(C)c1C(=O)Nc1ccc(C(N)=O)nc1 [Compound 233, 5-[[6-(4-chloro-2-methyl-phenoxy)-2-methyl-3-(trifluoromethyl)benzoyl]amino]pyridine-2-carboxamide]
> 3000 nM | Cc1c(C(F)(F)F)ccc(Oc2ccc(Cl)cc2F)c1C(=O)Nc1ccc(C(N)=O)nc1 [Compound 234, 5-[[6-(4-chloro-2-fluoro-phenoxy)-2-methyl-3-(trifluoromethyl)benzoyl]amino]pyridine-2-carboxamide]
1400 nM | COc1ccc(Oc2ccc(C(F)(F)F)c(C)c2C(=O)Nc2ccc(C(N)=O)nc2)c(Cl)c1 [Compound 235, 5-[[6-(2-chloro-4-methoxy-phenoxy)-2-methyl-3-(trifluoromethyl)benzoyl]amino]pyridine-2-carboxamide]
170 nM | Cc1cc(OC(F)(F)F)ccc1Oc1ccc(C(F)(F)F)c(C)c1C(=O)Nc1ccc(C(N)=O)nc1 [Compound 236, 5-[[2-methyl-6-[2-methyl-4-(trifluoromethoxy)phenoxy]-3-(trifluoromethyl)benzoyl]amino]pyridine-2-carboxamide]
93 nM | COc1cc(OC(F)(F)F)ccc1Oc1cc(C(C)(C)C)cc(C)c1C(=O)Nc1ccnc(C(N)=O)c1 [Compound 237, 4-[[4-tert-butyl-2-[2-methoxy-4-(trifluoromethoxy)phenoxy]-6-methyl-benzoyl]amino]pyridine-2-carboxamide]
695 nM | COc1cc(OC(F)(F)F)ccc1Oc1cc(C(C)(C)C)cnc1C(=O)Nc1ccnc(C(N)=O)c1 [Compound 238, 5-tert-butyl-N-(2-carbamoyl-4-pyridyl)-3-[2-methoxy-4-(trifluoromethoxy)phenoxy]pyridine-2-carboxamide]
72 nM | Cc1c2c(cc(Oc3ccc(OC(F)(F)F)cc3Cl)c1C(=O)Nc1ccnc(C(N)=O)c1)OC(F)(F)O2 [Compound 239, 4-[[6-[2-chloro-4-(trifluoromethoxy)phenoxy]-2,2-difluoro-4-methyl-1,3-benzodioxole-5-carbonyl]amino]pyridine-2-carboxamide]
570 nM | Cc1c2c(cc(Oc3ccc(OC(F)(F)F)cc3Cl)c1C(=O)Nc1ccc(C(N)=O)nc1)OC(F)(F)O2 [Compound 240, 5-[[6-[2-chloro-4-(trifluoromethoxy)phenoxy]-2,2-difluoro-4-methyl-1,3-benzodioxole-5-carbonyl]amino]pyridine-2-carboxamide]
190 nM | Cc1cc(OC(F)(F)F)cc(Oc2ccc(OC(F)(F)F)cc2Cl)c1C(=O)Nc1ccnc(C(N)=O)c1 [Compound 241, 4-[[2-[2-chloro-4-(trifluoromethoxy)phenoxy]-6-methyl-4-(trifluoromethoxy)benzoyl]amino]pyridine-2-carboxamide]
13 nM | COc1cc(OC(F)(F)F)ccc1Oc1cc(OC(F)(F)F)cc(C)c1C(=O)Nc1ccnc(C(N)=O)c1 [Compound 242, 4-[[2-[2-methoxy-4-(trifluoromethoxy)phenoxy]-6-methyl-4-(trifluoromethoxy)benzoyl]amino]pyridine-2-carboxamide]
